In patent US6818203B2, “Use of perfluoroalkyl-containing metal complexes as contrast media in MR-imaging for visualization of plaque, tumors and necroses” (Schering Aktiengesellschaft, priority 2000, dated 2004):

Assays:
[1] = organ distribution (including tumor and lymph node concentration) after intravenous administration in prostate cancer-bearing rats; type: in vivo; conditions: 200 μmol Gd/kg i.v.
Description: After intravenous administration of 200 μmol of total gadolinium/kg of body weight of a polar Gd-chelate with perfluorinated side chains (metal complex XIV) in rats (Cop-inbreeding with Dunning R3327 MAT-Lu prostate cancer i.m.-implanted 12 days earlier), the metal content in various organs, in tumors, as well as in the lymph nodes (pooled as mesenteric and peripheral lymph nodes) was determined 10 minutes, 1 hour and 24 hours after administration (MW±SD, n=3).

[2] = critical micelle formation concentration (CMC) by tensiometry; type: physicochemical
Procedure, shortened: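 Surface tension of aqueous solutions was measured by tensiometry across a range of compound concentrations. CMC (mol/l) was calculated from the resulting surface-tension-versus-concentration plot.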

[3] = tested on: iliac and inguinal lymph nodes; assay: lymph node visualization (MRT) after intravenous administration in guinea pigs with stimulated lymph nodes; type: in vivo; conditions: 200 μmol of Gd/kg i.v.
Description: By way of example, the pictures in FIG. 14 show MR images of iliac and inguinal lymph nodes precontrast and up to 24 hours after intravenous administration of 200 μmol of Gd/kg of body weight of metal complex XIV in guinea pigs with stimulated lymph nodes (Freund adjuvant). […] The enhancement was 127% at the time of 60 minutes p.i.

[4] = Mesentric lymph nodes, 10 min p.i.
[5] = Mesentric lymph nodes, 1 h p.i.
[6] = Mesentric lymph nodes, 24 h p.i.
[7] = Peripheral lymph nodes, 10 min p.i.
[8] = Peripheral lymph nodes, 1 h p.i.
[9] = Peripheral lymph nodes, 24 h p.i.
[10] = The remainder of the body, 10 min p.i.
[11] = The remainder of the body, 1 h p.i.
[12] = The remainder of the body, 24 h p.i.

SMILES: CC(C(=O)NCC(=O)NCC(=O)N1CCN(C(=O)CNC(=O)CNC(=O)C(C)N2CCN(CC(=O)[O-])CCN(CC(=O)[O-])CCN(CC(=O)[O-])CC2)CCN(C(=O)COCCC(F)(F)C(F)(F)C(F)(F)C(F)(F)C(F)(F)C(F)(F)C(F)(F)C(F)(F)F)CCN(C(=O)CNC(=O)CNC(=O)C(C)N2CCN(CC(=O)[O-])CCN(CC(=O)[O-])CCN(CC(=O)[O-])CC2)CC1)N1CCN(CC(=O)[O-])CCN(CC(=O)[O-])CCN(CC(=O)[O-])CC1.[Gd+3].[Gd+3].[Gd+3] (centres unmarked) [metal complex XIV, 1,4,7-Tris{1,4,7-tris(N-(carboxylatomethyl)-10-[N-1-methyl-3,6-diaza-2,5,8-trioxooctane-1,8-diyl]-1,4,7,10-tetraazacyclododecane, Gdcomplex}-10-N-2H,2H,4H,4H,5H,5H-3-oxa-perfluoro-tridecanoyl]-1,4,7,10-tetraazacyclo-dodecane, Gd complex]
- % Dose ([1]; Balance (without blood values), 24 h p.i.): 95.07 ± 2.41 % Dose
- % Dose ([1]; Blood (58 ml of blood/kg of body weight), 10 min p.i.): 26.73 ± 0.84 % Dose
- % Dose ([1]; Blood (58 ml of blood/kg of body weight), 1 h p.i.): 16.13 ± 1.77 % Dose
- % Dose ([1]; Blood (58 ml of blood/kg of body weight), 24 h p.i.): 0.61 ± 0.03 % Dose
- Gd concentration ([1]; Blood, 10 min p.i.): 957 ± 38 µmol/L
- Gd concentration ([1]; Blood, 1 h p.i.): 575 ± 56 µmol/L
- Gd concentration ([1]; Blood, 24 h p.i.): 22 ± 1 µmol/L
- % Dose ([1]; Brain, 10 min p.i.): 0.10 ± 0.03 % Dose
- Gd concentration ([1]; Brain, 10 min p.i.): 38 ± 6 µmol/L
- % Dose ([1]; Brain, 1 h p.i.): 0.06 ± 0.00 % Dose
- Gd concentration ([1]; Brain, 1 h p.i.): 22 ± 2 µmol/L
- % Dose ([1]; Brain, 24 h p.i.): 0.01 ± 0.01 % Dose
- Gd concentration ([1]; Brain, 24 h p.i.): 4 ± 4 µmol/L
- % Dose ([1]; Feces 0-24 h): 6.00 ± 4.91 % Dose
- Gd concentration ([1]; Feces 0-24 h): 781 ± 611 µmol/L
- % Dose ([1]; Femur, 10 min p.i.): 0.39 ± 0.02 % Dose
- Gd concentration ([1]; Femur, 10 min p.i.): 115 ± 3 µmol/L
- % Dose ([1]; Femur, 1 h p.i.): 0.28 ± 0.03 % Dose
- Gd concentration ([1]; Femur, 1 h p.i.): 81 ± 10 µmol/L
- % Dose ([1]; Femur, 24 h p.i.): 0.03 ± 0.00 % Dose
- Gd concentration ([1]; Femur, 24 h p.i.): 9 ± 1 µmol/L
- % Dose ([1]; Heart, 10 min p.i.): 0.32 ± 0.01 % Dose
- Gd concentration ([1]; Heart, 10 min p.i.): 320 ± 8 µmol/L
- % Dose ([1]; Heart, 1 h p.i.): 0.19 ± 0.01 % Dose
- Gd concentration ([1]; Heart, 1 h p.i.): 190 ± 15 µmol/L
- % Dose ([1]; Heart, 24 h p.i.): 0.02 ± 0.00 % Dose
- Gd concentration ([1]; Heart, 24 h p.i.): 19 ± 0 µmol/L
- % Dose ([1]; Intestine (empty), 10 min p.i.): 1.55 ± 0.09 % Dose
- Gd concentration ([1]; Intestine (empty), 10 min p.i.): 242 ± 15 µmol/L
- % Dose ([1]; Intestine (empty), 1 h p.i.): 1.16 ± 0.22 % Dose
- Gd concentration ([1]; Intestine (empty), 1 h p.i.): 201 ± 32 µmol/L
- % Dose ([1]; Intestine (empty), 24 h p.i.): 0.26 ± 0.04 % Dose
- Gd concentration ([1]; Intestine (empty), 24 h p.i.): 36 ± 5 µmol/L
- % Dose ([1]; Kidney, 10 min p.i.): 1.76 ± 0.14 % Dose
- Gd concentration ([1]; Kidney, 10 min p.i.): 761 ± 60 µmol/L
- % Dose ([1]; Kidney, 1 h p.i.): 2.84 ± 0.61 % Dose
- Gd concentration ([1]; Kidney, 1 h p.i.): 1181 ± 232 µmol/L
- % Dose ([1]; Kidney, 24 h p.i.): 0.81 ± 0.09 % Dose
- Gd concentration ([1]; Kidney, 24 h p.i.): 338 ± 49 µmol/L
- % Dose ([1]; Liver, 10 min p.i.): 2.62 ± 0.11 % Dose
- Gd concentration ([1]; Liver, 10 min p.i.): 192 ± 12 µmol/L
- % Dose ([1]; Liver, 1 h p.i.): 2.04 ± 0.15 % Dose
- Gd concentration ([1]; Liver, 1 h p.i.): 147 ± 7 µmol/L
- % Dose ([1]; Liver, 24 h p.i.): 0.96 ± 0.05 % Dose
- Gd concentration ([1]; Liver, 24 h p.i.): 64 ± 4 µmol/L
- % Dose ([1]; Lung, 10 min p.i.): 1.04 ± 0.02 % Dose
- Gd concentration ([1]; Lung, 10 min p.i.): 603 ± 30 µmol/L
- % Dose ([1]; Lung, 1 h p.i.): 0.80 ± 0.06 % Dose
- Gd concentration ([1]; Lung, 1 h p.i.): 415 ± 39 µmol/L
- % Dose ([1]; Lung, 24 h p.i.): 0.09 ± 0.01 % Dose
- Gd concentration ([1]; Lung, 24 h p.i.): 44 ± 4 µmol/L
- % Dose [1, 4]: 0.08 ± 0.01 % Dose
- Gd concentration [1, 4]: 291 ± 29 µmol/L
- % Dose [1, 5]: 0.05 ± 0.01 % Dose
- Gd concentration [1, 5]: 179 ± 16 µmol/L
- % Dose [1, 6]: 0.02 ± 0.00 % Dose
- Gd concentration [1, 6]: 50 ± 6 µmol/L
- % Dose ([1]; Muscle, 10 min p.i.): 0.06 ± 0.02 % Dose
- Gd concentration ([1]; Muscle, 10 min p.i.): 93 ± 5 µmol/L
- % Dose ([1]; Muscle, 1 h p.i.): 0.04 ± 0.00 % Dose
- Gd concentration ([1]; Muscle, 1 h p.i.): 56 ± 3 µmol/L
- % Dose ([1]; Muscle, 24 h p.i.): 0.00 ± 0.00 % Dose
- Gd concentration ([1]; Muscle, 24 h p.i.): 8 ± 1 µmol/L
- % Dose ([1]; Pancreas, 10 min p.i.): 0.35 ± 0.02 % Dose
- Gd concentration ([1]; Pancreas, 10 min p.i.): 191 ± 14 µmol/L
- % Dose ([1]; Pancreas, 1 h p.i.): 0.21 ± 0.05 % Dose
- Gd concentration ([1]; Pancreas, 1 h p.i.): 139 ± 26 µmol/L
- % Dose ([1]; Pancreas, 24 h p.i.): 0.03 ± 0.01 % Dose
- Gd concentration ([1]; Pancreas, 24 h p.i.): 25 ± 1 µmol/L
- % Dose [1, 7]: 0.13 ± 0.00 % Dose
- Gd concentration [1, 7]: 284 ± 19 µmol/L
- % Dose [1, 8]: 0.14 ± 0.02 % Dose
- Gd concentration [1, 8]: 254 ± 14 µmol/L
- % Dose [1, 9]: 0.02 ± 0.00 % Dose
- Gd concentration [1, 9]: 51 ± 5 µmol/L
- % Dose ([1]; Spleen, 10 min p.i.): 0.13 ± 0.01 % Dose
- Gd concentration ([1]; Spleen, 10 min p.i.): 200 ± 13 µmol/L
- % Dose ([1]; Spleen, 1 h p.i.): 0.08 ± 0.01 % Dose
- Gd concentration ([1]; Spleen, 1 h p.i.): 123 ± 10 µmol/L
- % Dose ([1]; Spleen, 24 h p.i.): 0.06 ± 0.00 % Dose
- Gd concentration ([1]; Spleen, 24 h p.i.): 69 ± 5 µmol/L
- % Dose ([1]; Stomach (empty), 10 min p.i.): 0.56 ± 0.07 % Dose
- Gd concentration ([1]; Stomach (empty), 10 min p.i.): 244 ± 17 µmol/L
- % Dose ([1]; Stomach (empty), 1 h p.i.): 0.40 ± 0.05 % Dose
- Gd concentration ([1]; Stomach (empty), 1 h p.i.): 165 ± 21 µmol/L
- % Dose ([1]; Stomach (empty), 24 h p.i.): 0.05 ± 0.00 % Dose
- Gd concentration ([1]; Stomach (empty), 24 h p.i.): 19 ± 2 µmol/L
- % Dose ([1]; Sum of the organs, 10 min p.i.): 80.06 ± 2.84 % Dose
- % Dose ([1]; Sum of the organs, 1 h p.i.): 72.94 ± 5.83 % Dose
- % Dose ([1]; Sum of the organs, 24 h p.i.): 9.21 ± 0.27 % Dose
- % Dose [1, 10]: 70.71 ± 2.74 % Dose
- Gd concentration [1, 10]: 419 ± 27 µmol/L
- % Dose [1, 11]: 64.27 ± 5.50 % Dose
- Gd concentration [1, 11]: 392 ± 25 µmol/L
- % Dose [1, 12]: 6.81 ± 0.16 % Dose
- Gd concentration [1, 12]: 42 ± 0 µmol/L
- % Dose ([1]; Tumor, 10 min p.i.): 0.25 ± 0.05 % Dose
- Gd concentration ([1]; Tumor, 10 min p.i.): 246 ± 25 µmol/L
- % Dose ([1]; Tumor, 1 h p.i.): 0.37 ± 0.14 % Dose
- Gd concentration ([1]; Tumor, 1 h p.i.): 266 ± 87 µmol/L
- % Dose ([1]; Tumor, 24 h p.i.): 0.04 ± 0.01 % Dose
- Gd concentration ([1]; Tumor, 24 h p.i.): 56 ± 4 µmol/L
- % Dose ([1]; Urine 0-24 h): 79.86 ± 3.13 % Dose
- Gd concentration ([1]; Urine 0-24 h): 619 ± 19 µmol/L
- CMC (critical micelle formation concentration) [2]: 0.00089 mol/L
- enhancement in lymph node tissue ([3]; 60 minutes p.i.): 127%
- signal in healthy lymph node tissue (T1-weighted gradient-echo images) ([3]; very shortly after injection): strong signal rise
